Test results published in patent US9856254B2, “Alkoxy substituted imidazoquinolines” (3M INNOVATIVE PROPERTIES COMPANY, priority 2003, dated 2018).
Values joined by “and” are separate entries in the source; they are usually repeats but may differ in a detail not shown here. Equal entries are not always repeated. Structures can show the parent of a compound that is named as a salt.

| melting point | SMILES |
| --- | --- |
| 238 °C (dec.) | CCc1nc2c(N)nc3cc(OCCN)ccc3c2n1CC1CCOCC1 [Example 650, 7-(2-Aminoethoxy)-2-ethyl-1-(tetrahydro-2H-pyran-4-ylmethyl)-1H-imidazo[4,5-c]quinolin-4-amine] |
| 190.5 to 192 °C | CCCn1c(CCO)nc2c(N)nc3cc(OCCCNC(=O)C(C)C)ccc3c21 [Example 395, N-(3-{[4-Amino-2-(2-hydroxyethyl)-1-propyl-1H-imidazo[4,5-c]quinolin-7-yl]oxy}propyl)-2-methylpropanamide] |
| 196.4 to 199.6 °C | CCCc1nc2c(N)nc3cc(OCCC4CCN(C(=O)OC(C)(C)C)CC4)ccc3c2n1CC(C)C [Example 22, tert-Butyl 4-(2-{[4-amino-1-(2-methylpropyl)-2-propyl-1H-imidazo[4,5-c]quinolin-7-yl]oxy}ethyl)piperidine-1-carboxylate] |
| 144 to 146 °C | CCCn1c(CCOC)nc2c(N)nc3cc(OC(=O)NC(C)C)ccc3c21 [Example 366, 4-Amino-2-(2-methoxyethyl)-1-propyl-1H-imidazo[4,5-c]quinolin-7-yl isopropylcarbamate] |
| 250 to 255 °C (dec.) | CCCCc1nc2c(N)nc3ccc(OCCNC(=O)CC)cc3c2n1C [Example 43, N-[2-(4-Amino-2-butyl-1-methyl-1H-imidazo[4,5-c]quinolin-8-yloxy)ethyl]propanamide] |
| 157 to 159 °C | CCCn1c(COCC)nc2c(N)nc3ccc(OCCN)cc3c21 [Example 2, 8-(2-Aminoethoxy)-2-ethoxymethyl-1-propyl-1H-imidazo[4,5-c]quinolin-4-amine] |
| 205 to 206 °C | Cc1nc2c(N)nc3cc(OCCNC(=O)C(C)C)ccc3c2n1CC(C)C [Example 17, N-{2-[4-Amino-2-methyl-1-(2-methylpropyl)-1H-imidazo[4,5-c]quinolin-7-yloxy]ethyl}-2-methylpropanamide] |
| 215 to 217 °C | CCCn1c(COCC)nc2c(N)nc3cc(OC4CCN(S(C)(=O)=O)CC4)ccc3c21 [Example 561, 2-(Ethoxymethyl)-7-{[1-(methylsulfonyl)piperidin-4-yl]oxy}-1-propyl-1H-imidazo[4,5-c]quinolin-4-amine] |
| 169 to 171 °C | CCOCc1nc2c(N)nc3cc(OCCCCCCNC(C)=O)ccc3c2n1CC(C)(C)NS(C)(=O)=O [Example 46, N-(6-{[4-Amino-2-ethoxymethyl-1-(2-methanesulfonylamino-2-methylpropyl)-1H-imidazo[4,5-c]quinolin-7-yl]oxy}hexyl)acetamide] |
| 157 °C | CCOCc1nc2c(N)nc3cc(OCCCN4CCCC4=O)ccc3c2n1CCCCNS(C)(=O)=O [Example 400, N-(4-{4-Amino-2-(ethoxymethyl)-7-[3-(2-oxopyrrolidin-1-yl)propoxy]-1H-imidazo[4,5-c]quinolin-1-yl}butyl)methanesulfonamide] |
| 155 to 157 °C | CCCn1c(COC)nc2c(N)nc3ccc(OCCC4CCCN4C)cc3c21 (centres unmarked) [Example 567, 2-(Methoxymethyl)-8-[2-(1-methylpyrrolidin-2-yl)ethoxy]-1-propyl-1H-imidazo[4,5-c]quinolin-4-amine] |
| 125 to 128 °C | CCCCc1nc2c(N)nc3ccc(OCC(=O)N(CCOC)CCOC)cc3c2n1C [Example 36, 2-[(4-Amino-2-butyl-1-methyl-1H-imidazo[4,5-c]quinolin-8-yl)oxy]-N,N-bis(2-methoxyethyl)acetamide] |
| 163 to 164.5 °C | CCCn1c(COCC)nc2c(N)nc3cc(OC4CCN(C(=O)NC(C)C)CC4)ccc3c21 [Example 417, 4-{[4-Amino-2-(ethoxymethyl)-1-propyl-1H-imidazo[4,5-c]quinolin-7-yl]oxy}-N-isopropylpiperidine-1-carboxamide] |
| 219 to 220 °C | CCc1nc2c(N)nc3cc(OCC(=O)N4CCOCC4)ccc3c2n1CC(C)C [Example 30, 2-Ethyl-1-(2-methylpropyl)-7-(2-morpholin-4-yl-2-oxoethoxy)-1H-imidazo[4,5-c]quinolin-4-amine] |
| 196 to 197 °C | CCCn1c(COCC)nc2c(N)nc3ccc(OCC(=O)N4CCOCC4)cc3c21 [Example 566, 2-(Ethoxymethyl)-8-(2-morpholin-4-yl-2-oxoethoxy)-1-propyl-1H-imidazo[4,5-c]quinolin-4-amine] |
| 178 to 179.5 °C and 182 to 184.5 °C | CCCn1c(COCC)nc2c(N)nc3ccc(OCCNS(C)(=O)=O)cc3c21 [Example 3, N-[2-(4-Amino-2-ethoxymethyl-1-propyl-1H-imidazo[4,5-c]quinolin-8-yloxy)ethyl]methanesulfonamide] |
| 209 to 211 °C | CCOCc1nc2c(N)nc3cc(OCC(=O)N4CCOCC4)ccc3c2n1CC(C)(C)O [Example 646, 1-[4-Amino-2-(ethoxymethyl)-7-(2-morpholin-4-yl-2-oxoethoxy)-1H-imidazo[4,5-c]quinolin-1-yl]-2-methylpropan-2-ol] |
| 196 to 197 °C | CCCn1c(COC)nc2c(N)nc3ccc(OCCCN4CCN(c5ccccn5)CC4)cc3c21 [Example 657, 2-(Methoxymethyl)-1-propyl-8-[3-(4-pyridin-2-ylpiperazin-1-yl)propoxy]-1H-imidazo[4,5-c]quinolin-4-amine] |

| melting point | SMILES |
| --- | --- |
| 173 to 175 °C | CCCn1c(CCOC)nc2c(N)nc3cc(OC4CCN(C(=O)OC(C)(C)C)CC4)ccc3c21 [Example 387, tert-Butyl 4-{[4-amino-2-(2-methoxyethyl)-1-propyl-1H-imidazo[4,5-c]quinolin-7-yl]oxy}piperidine-1-carboxylate] |
| 202 to 204 °C | CCCn1c(COCC)nc2c(N)nc3cc(OC4CCNCC4)ccc3c21 [Example 416, 2-(Ethoxymethyl)-7-(piperidin-4-yloxy)-1-propyl-1H-imidazo[4,5-c]quinolin-4-amine] |
| 155.5 to 156.2 °C | CCCCc1nc2c(N)nc3ccc(OCCCCC(=O)N4CCOCC4)cc3c2n1C (as salt: trifluoroacetate) [Example 31, 2-Butyl-1-methyl-8-[(5-morpholin-4-yl-5-oxopentyl)oxy]-1H-imidazo[4,5-c]quinolin-4-amine trifluoroacetate] |
| 173 to 174 °C | CCCc1nc2c(N)nc3cc(OCCCN)ccc3c2n1CC(C)C [Example 8, 7-(3-Aminopropoxy)-1-(2-methylpropyl)-2-propyl-1H-imidazo[4,5-c]quinolin-4-amine] |
| 152.8 °C (dec.) | CCCCc1nc2c(N)nc3ccc(OCCC4CCN(C(=O)N5CCOCC5)CC4)cc3c2n1C [Example 42, 2-Butyl-1-methyl-8-{2-[1-(morpholin-4-ylcarbonyl)piperidin-4-yl]ethoxy}-1H-imidazo[4,5-c]quinolin-4-amine] |
| 134.5 to 136 °C | CCOCc1nc2c(N)nc3cc(OCCCN4CCCC4=O)ccc3c2n1CCCCNC(=O)OC(C)(C)C [Example 397, tert-Butyl 4-{4-amino-2-(ethoxymethyl)-7-[3-(2-oxopyrrolidin-1-yl)propoxy]-1H-imidazo[4,5-c]quinolin-1-yl}butylcarbamate] |
| 208 to 209 °C | CCc1nc2c(N)nc3cc(OCC(=O)N4CCOCC4)ccc3c2n1CCOc1ccccc1 [Example 53, 2-Ethyl-7-(2-morpholin-4-yl-2-oxoethoxy)-1-(2-phenoxyethyl)-1H-imidazo[4,5-c]quinolin-4-amine] |
| 236.5 to 239 °C | CCCn1c(COCC)nc2c(N)nc3ccc(OC4CCN(C(=O)NC(C)C)CC4)cc3c21 [Example 412, 4-{[4-Amino-2-(ethoxymethyl)-1-propyl-1H-imidazo[4,5-c]quinolin-8-yl]oxy}-N-isopropylpiperidine-1-carboxamide] |
| 298 °C (dec.) | Cc1nc2c(N)nc3ccc(OCC(=O)O)cc3c2n1C [Example 44, 2-[(4-Amino-1,2-dimethyl-1H-imidazo[4,5-c]quinolin-8-yl)oxy]acetic acid] |
| 172 to 174 °C | CCCc1nc2c(N)nc3cc(OCCCNC(=O)c4cccnc4)ccc3c2n1CC(C)C [Example 16, N-{3-[4-Amino-1-(2-methylpropyl)-2-propyl-1H-imidazo[4,5-c]quinolin-7-yloxy]propyl}nicotinamide] |
| 82 to 84 °C | CCOCc1nc2c(N)nc3cc(OCCNC(=O)OC(C)(C)C)ccc3c2n1CC1COC(C)(C)O1 (centres unmarked) [Example 372, tert-Butyl 2-{[4-amino-1-[(2,2-dimethyl-1,3-dioxolan-4-yl)methyl]-2-(ethoxymethyl)-1H-imidazo[4,5-c]quinolin-7-yl]oxy}ethylcarbamate] |
| 206 to 208 °C | CCCc1nc2c(N)nc3cc(OCCN4CCCC4=O)ccc3c2n1CC(C)C [Example 18, 1-{2-[4-Amino-1-(2-methylpropyl)-2-propyl-1H-imidazo[4,5-c]quinolin-7-yloxy]ethyl}pyrrolidin-2-one] |
| 171.1 to 173.2 °C | CCCCc1nc2c(N)nc3ccc(OCCC4CCN(C(=O)OC(C)(C)C)CC4)cc3c2n1C [Example 37, tert-Butyl 4-[2-(4-amino-2-butyl-1-methyl-1H-imidazo[4,5-c]quinolin-8-yloxy)ethyl]piperidine-1-carboxylate] |
| 168 to 172 °C | CCCc1nc2c(N)nc3cc(OCCCCCCNC(C)=O)ccc3c2n1CCCCNS(C)(=O)=O [Example 48, N-(6-{4-Amino-1-[4-(methanesulfonylamino)butyl]-2-propyl-1H-imidazo[4,5-c]quinolin-7-yloxy}hexyl)acetamide] |
| 167.4 to 168.8 °C | CCCCc1nc2c(N)nc3ccc(OCC(=O)N(C)Cc4ccccc4)cc3c2n1C [Example 34, 2-[(4-Amino-2-butyl-1-methyl-1H-imidazo[4,5-c]quinolin-8-yl)oxy]-N-benzyl-N-methylacetamide] |
| 146 to 148 °C | CCCn1c(COCC)nc2c(N)nc3ccc(OCCN4CCCCCC4)cc3c21 [Example 571, 8-(2-Azepan-1-ylethoxy)-2-(ethoxymethyl)-1-propyl-1H-imidazo[4,5-c]quinolin-4-amine] |
| 245 to 247 °C | CCc1nc2c(N)nc3cc(OCC(=O)N4CCOCC4)ccc3c2n1CC1CCOCC1 [Example 553, 2-Ethyl-7-(2-morpholin-4-yl-2-oxoethoxy)-1-(tetrahydro-2H-pyran-4-ylmethyl)-1H-imidazo[4,5-c]quinolin-4-amine] |
